Experimental findings from patent US5494907A, “11-β substituted-19-nor steroids” (Roussel UCLAF, priority 1993, dated 1996) are described below.

The structures appear in SMILES notation.

This experiment addresses T1, hPR (recombinant human progesterone receptor) (Homo sapiens, UniProt P06401).
T1 construct: made in house; host or cells: SF9 insect cells (ATCC CRL1711), recombinant baculovirus (BaculoGold Transfection Kit, PharMingen 21000K)
T1 sequence (P06401 1-933): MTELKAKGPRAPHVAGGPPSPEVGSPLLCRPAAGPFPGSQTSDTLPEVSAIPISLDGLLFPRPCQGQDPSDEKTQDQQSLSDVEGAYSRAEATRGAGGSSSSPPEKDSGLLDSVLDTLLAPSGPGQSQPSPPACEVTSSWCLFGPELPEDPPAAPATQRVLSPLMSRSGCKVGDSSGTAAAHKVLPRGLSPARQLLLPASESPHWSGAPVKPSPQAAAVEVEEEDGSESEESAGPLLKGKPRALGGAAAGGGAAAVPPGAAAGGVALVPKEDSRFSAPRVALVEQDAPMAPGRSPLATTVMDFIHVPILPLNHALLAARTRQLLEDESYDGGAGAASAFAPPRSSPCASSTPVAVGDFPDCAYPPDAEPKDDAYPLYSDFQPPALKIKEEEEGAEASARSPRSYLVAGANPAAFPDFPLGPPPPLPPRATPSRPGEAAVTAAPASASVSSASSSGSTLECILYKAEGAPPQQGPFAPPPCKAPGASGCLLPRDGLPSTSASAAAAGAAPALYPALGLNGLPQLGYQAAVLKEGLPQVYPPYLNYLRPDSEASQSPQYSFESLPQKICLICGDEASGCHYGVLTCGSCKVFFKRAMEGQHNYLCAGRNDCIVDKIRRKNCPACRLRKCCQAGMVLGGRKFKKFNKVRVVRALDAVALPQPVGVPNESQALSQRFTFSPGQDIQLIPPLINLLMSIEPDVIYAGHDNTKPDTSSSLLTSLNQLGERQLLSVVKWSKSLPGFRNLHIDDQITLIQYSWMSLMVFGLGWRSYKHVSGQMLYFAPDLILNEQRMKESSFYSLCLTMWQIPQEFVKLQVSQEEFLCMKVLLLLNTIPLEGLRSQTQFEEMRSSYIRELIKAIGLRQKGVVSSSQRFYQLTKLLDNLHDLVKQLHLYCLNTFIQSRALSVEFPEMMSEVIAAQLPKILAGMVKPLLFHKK
In words: Relative bond affinity (RBA) on recombinant human progesterone receptor, displacement of tritiated 17α,21-dimethyl-19-nor-Δ4,9-pregnadien-3,20-dione. It is filed as binding. As to conditions: for RBA hPR: Progesterone = 100, 0° C., 24 hours; for affinity for the progesterone receptor (in words): conclusion in words. The text has this:
1--Activity on the hormonal receptors using either the natural hormonal receptor of a rat (AR), or the recombinant human receptor (PR, GR and ER).
Human progesterone receptor
The recombinant human progesterone receptor was obtained by superexpression in an insect-Baculovirus cell system by methodology described by WEBB et al. in Journal of Methods in Cell and Molecular Biology, (1990), Vol. 2 N° 4, pp. 173-188 and whose use is described for the expression of human hormonal receptors, for example the human glucocorticoid receptor (SRINIVASAN et al. Molecular Endocrinology, (1990), Vol. 4 N° 2, pp. 209-216).
The BaculoGold Transfection Kit was used (PharMingen, reference 21000K) to insert the cDNA fragment described by KASTNER et al. (The EMBO Journal, (1990), Vol. 9 N° 5, pp. 1603-1614), containing the region coding for the human progesterone receptor and to prepare the corresponding recombinant virus. The recombinant virus was used to express the progesterone receptor in SF9 insect cells (ATCC CRL1711), by the known methodology mentioned previously.
2×10^7 to 2.5×10^7 SF9 cells were cultivated in a […] "Falcon" flask in a TNM-FH "SIGMA" medium supplemented with 10% of foetal calf serum (FCS) and with 50 micrograms/ml of gentamycin. After infection, then incubation at 27° C. for 40 to 42 hours, the cells were lysed in 1 ml of lysis buffer (1) by a freezing-defrosting cycle which was repeated twice more. The supernatant containing the recombinant human progesterone receptor was kept in liquid nitrogen in doses of 1 ml. The supernatant was diluted at the time of use according to a dilution range varying from 1/10th to 1/100th with 10 mM Tris, 0.25 M saccharose, HCl buffer at pH 7.4 containing 0.1% gelatin and then was incubated at 0° C. for 24 hours with a constant concentration (T) of tritiated 17α,21-dimethyl-19-nor-Δ4,9-pregnadien-3,20-dione in the presence of increasing concentrations either of unlabelled progesterone (0-2500×10^-9 M), or of unlabelled product under test (1 to 25000×10^-9 M). The concentration of bound tritiated 17,21-dimethyl 19-nor-Δ4,9-[…] (B) was then measured in each incubate by the technique of adsorption with carbon dextran.
Calculation of the relative bond affinity (RBA).
The following 2 curves were traced: percentage of bound tritiated hormone B/BO as a function of the logarithm of the concentration of unlabelled reference hormone or as a function of the logarithm of the concentration of the unlabelled product under test.
The straight line of the following equation was determined:
BO=Concentration of bound tritiated hormone in the absence of any unlabelled product,
B=Concentration of bound tritiated hormone in the presence of a concentration X of unlabelled product,
B min=Concentration of bound tritiated hormone in the presence of a large excess of cold reference hormone (500 nM). The intersections of the straight line I50 and the curves allowed the evaluation of the concentrations of unlabelled reference hormone (CH) and of the unlabelled product under test (CX) which inhibited by 50% the specific binding of the tritiated hormone on the receptor.
The relative bond affinity (RBA) of the product under test was determined by the equation:
The RBA's of the reference products estradiol, progesterone, dexamethasone and testosterone were arbitrarily taken to be equal to 100.

On to `CCCCN(C)S(=O)(=O)CCCCCOc1ccc([C@H]2C[C@]3(C)[C@@H](O)CC[C@H]3[C@@H]3CCc4cc(O)ccc4[C@H]32)cc1` [Example 7, N-butyl-5-[4-(Δ1,3,5(10)-estratrien-3,17β-diol-11β-yl)phenoxy]-N-methyl-pentanesulfonamide], for which the “RBA hPR” value came out at 111 and the “affinity for the progesterone receptor (in words)” value (“affinity” below) is given as “marked affinity”.

On to `CN(CC(F)(F)C(F)(F)C(F)(F)F)S(=O)(=O)CCCCCOc1ccc([C@H]2C[C@]3(C)[C@@H](O)CC[C@H]3[C@@H]3CCc4cc(O)ccc4[C@H]32)cc1` [Example 8, 5-[4-(Δ1,3,5(10)-estratrien-3,17β-diol-11βyl)-Phenoxy]-N-(2,2,3,3,4,4,4-heptafluorobutyl)-N-methyl-pentanesulfonamide], for which the “RBA hPR” value was determined as 55 and the “affinity” value is reported as “marked affinity”.

On to `CCCCNS(=O)(=O)CCCCCOc1ccc([C@H]2C[C@]3(C)[C@@H](O)CC[C@H]3[C@@H]3CCc4cc(O)ccc4[C@H]32)cc1` [Example 2, N-butyl-5-[4-(Δ1,3,5(10)-estratrien-3,17β-diol-11β-yl)phenoxy]-pentanesulfonamide], for which the “RBA hPR” value stood at 37 and the “affinity” value is “marked affinity”.
